The source of these data is ChEMBL document CHEMBL3508693 (2016).

Data set [1] addresses T1, CYP1A2 (Homo sapiens, UniProt P05177).
T1 sequence (P05177 whole entry): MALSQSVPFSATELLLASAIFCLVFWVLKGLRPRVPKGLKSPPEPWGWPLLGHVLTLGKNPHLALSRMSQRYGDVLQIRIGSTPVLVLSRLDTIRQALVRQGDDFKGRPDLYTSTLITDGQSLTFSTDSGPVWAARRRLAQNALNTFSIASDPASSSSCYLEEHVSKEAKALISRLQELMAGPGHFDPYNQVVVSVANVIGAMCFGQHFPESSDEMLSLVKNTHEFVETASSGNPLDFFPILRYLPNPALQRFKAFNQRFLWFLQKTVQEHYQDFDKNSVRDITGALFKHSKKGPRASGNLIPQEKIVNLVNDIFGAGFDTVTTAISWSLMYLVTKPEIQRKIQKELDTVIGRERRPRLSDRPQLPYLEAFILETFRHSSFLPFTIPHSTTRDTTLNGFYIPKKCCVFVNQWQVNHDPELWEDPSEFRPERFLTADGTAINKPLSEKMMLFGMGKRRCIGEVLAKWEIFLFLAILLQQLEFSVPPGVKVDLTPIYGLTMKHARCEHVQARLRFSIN
Briefly: Inhibitory activity of 200 uM SPP100 on 578 Pmoles of cDNA-derived CYP1A2 enzyme in microsome prepared from human lymphoblastoid cell line. Format: ADME, microsomes. More on the design: conc 200 uM, interact cpd conc 50 uM. To be noted: probe phenacetin.

A further data set has as its target CYP2C19 (Homo sapiens, UniProt P33261). As to the kind of experiment: Inhibitory activity of 200 uM SPP100 on 1156 Pmoles of cDNA-derived CYP2C19 enzyme in microsome prepared from human lymphoblastoid cell line. The conditions noted are these: probe (S)-mephenytoin (50 uM). Format: ADME, microsomes. More on the design: conc 200 uM, interact cpd conc 50 uM.
A short description of data set [2]: % SPP100 (0-72h) recovered in faeces following single intravenous dose of [14C] aliskiren hemifumarate at 1 mg.Kg-1 level in marmoset. It counts as ADME, organism-based, Callithrix jacchus, Feces. To be noted: in vivo.
The nature of data set [3]: %Unchanged aliskiren in faeces following 10 day repeated oral administration of [14C] aliskiren hemifumarate at 100 mg.Kg-1 level studied in rat. Format: ADME, organism-based, Albino HAN:WIST, Feces. The conditions noted are these: in vivo, 240 h.
The nature of data set [4]: AUC of SPP100 following single oral dose of [14C] aliskiren hemifumarate at 3 mg.Kg-1 level in marmoset. It counts as ADME, organism-based, Callithrix jacchus, Plasma. To be noted: in vivo.
A further data set addresses CYP2C9 (Homo sapiens, UniProt P11712). Briefly: Inhibition of CYP2C9 in human liver microsomes from 10 healthy donors at 200 uM aliskiren (SPP100). Set-up: conc 200 uM. To be noted: probe S-warfarin (7-hydroxylation). Format: ADME, Microsome.
Data set [5] concerns the target T1, CYP1A2. As to the kind of experiment: Inhibitory activity of 200 uM SPP100 on 484 Pmoles of cDNA-derived CYP1A2 enzyme in microsome prepared from human lymphoblastoid cell line. It counts as ADME, microsomes. Set-up: conc 200 uM, interact cpd conc 50 uM. To be noted: probe phenacetin.
A further data set has as its target Cytochrome P450 3A4 (Homo sapiens, UniProt P08684). Briefly: Metabolic clearance (ul.min.nmol-1 CYP) of aliskiren hemifumarate for CYP3A4 was determined in human liver microsome incubated with [14C]SPP100 hemifumarate. It counts as ADME. To be noted: microsomes.
Data set [6] in a line: Excretion (0-168h) of radioactivity in urine following intravenous administration of [14C] aliskiren hemifumarate at 1 mg.Kg-1 level in marmoset. It counts as ADME, organism-based, Callithrix jacchus. To be noted: in vivo.
The nature of data set [7]: Plasma concentration of [14C] aliskiren hemifumarate in first 24h following single oral dose of [14C] aliskiren hemifumarate at 500 mg.Kg-1 level in mouse. Format: ADME, organism-based, TgRasH2. To be noted: in vivo.
Data set [8] can be described thus: Excretion of radioactivity (0-24h) in faeces following single oral dose of 100 mg.Kg-1 [14C] aliskiren hemifumarate in rat. The conditions noted are these: in vivo. Format: ADME, organism-based, Albino HAN:WIST, Feces.
A short description of data set [9]: Cmax/dose (0-96h) of total radioactivity following oral administration of [14C] aliskiren hemifumarate at 100 mg.Kg-1 level in rat. It counts as ADME, organism-based, Albino HAN:WIST, Plasma. The conditions noted are these: in vivo.
The nature of data set [10]: Cmax (0-168h) of total radioactivity following single oral administration of [14C] aliskiren hemifumarate at 3 mg.Kg-1 level in marmoset. Format: ADME, organism-based, Callithrix jacchus, Plasma. The conditions noted are these: in vivo.
Data set [11] in a line: Cmax of [14C] aliskiren hemifumarate following single intravenous dose of [14C] aliskiren hemifumarate at 10 mg.Kg-1 level in mouse. To be noted: in vivo. Format: ADME, organism-based, TgRasH2, Plasma.
A further data set deals with Cytochrome P450 2E1 (Homo sapiens, UniProt P05181). As to the kind of experiment: Metabolic clearance (ul.min.nmol-1 CYP) of aliskiren hemifumarate for CYP2E1 was determined in human liver microsome incubated with [14C]SPP100 hemifumarate. Format: ADME. The conditions noted are these: microsomes. For orientation: Liver microsomes are vesicles of endoplasmic reticulum, rich in cytochrome P450 enzymes.
Chain of Cytochrome P450 2E1 (P05181 whole entry): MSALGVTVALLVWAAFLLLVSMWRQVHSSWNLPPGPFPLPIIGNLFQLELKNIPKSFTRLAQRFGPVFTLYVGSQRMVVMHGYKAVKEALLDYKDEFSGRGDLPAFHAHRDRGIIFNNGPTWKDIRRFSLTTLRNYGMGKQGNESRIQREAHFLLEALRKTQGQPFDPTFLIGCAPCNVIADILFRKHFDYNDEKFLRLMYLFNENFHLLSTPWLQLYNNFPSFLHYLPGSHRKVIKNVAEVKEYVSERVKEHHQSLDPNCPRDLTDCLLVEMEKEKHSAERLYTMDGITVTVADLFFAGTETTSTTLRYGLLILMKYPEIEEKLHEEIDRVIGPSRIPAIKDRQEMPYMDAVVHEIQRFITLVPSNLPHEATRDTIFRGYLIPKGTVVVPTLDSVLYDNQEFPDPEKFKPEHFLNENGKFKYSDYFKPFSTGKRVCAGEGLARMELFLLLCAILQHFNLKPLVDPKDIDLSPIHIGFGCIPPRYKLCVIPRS

Data set [12] can be described thus: Apparent Vmax value of metabolism of [14C] aliskiren hemifumarate studied in human liver microsome. It counts as ADME. The conditions noted are these: microsomes.
Data set [13] can be described thus: Excretion of radioactivity (0-384h) in urine following 10 day repeated oral administration of [14C] aliskiren hemifumarate at 100 mg.Kg-1 level studied in rat. To be noted: in vivo. It counts as ADME, organism-based, Albino HAN:WIST.
Data set [14] in a line: Concentration of radioactivity in carcass following intravenous administration of [14C] aliskiren hemifumarate at 10 mg.Kg-1 level measured on day 7 in rat. Format: ADME, organism-based, Lister-Hooded. To be noted: in vivo.
Data set [15] can be described thus: AUC of [14C] aliskiren hemifumarate following single oral dose of [14C] aliskiren hemifumarate at 500 mg.Kg-1 level in mouse. Format: ADME, organism-based, TgRasH2, Plasma. To be noted: in vivo.
Data set [16] in a line: Excretion (0-24h) of radioactivity in urine following intravenous administration of [14C] aliskiren hemifumarate at 1 mg.Kg-1 level in marmoset. It counts as ADME, organism-based, Callithrix jacchus. To be noted: in vivo.
A short description of data set [17]: Total excretion (0-72h) of radioactivity in urine, faeces and cage wash following single oral dose of 500 mg.Kg-1 [14C] aliskiren hemifumarate in mouse. Format: ADME, organism-based, TgRasH2, Urine/Feces. To be noted: in vivo.
Data set [18] is described as follows: Tmax (0-96h) of total radioactivity following oral administration of [14C] aliskiren hemifumarate at 100 mg.Kg-1 level in rat. Format: ADME, organism-based, Albino HAN:WIST, Plasma. The conditions noted are these: in vivo.
A short description of data set [19]: Cmax of aliskiren hemifumarate following 4 week oral dietary dosing of aliskiren hemifumarate at 1500 mg.Kg-1 level in male mouse. To be noted: CB6F1-TGrasH2, mouse, in vivo. It counts as ADME, organism-based.
Data set [20] is described as follows: Apparent terminal half-life (0-168h) of unlabeled aliskiren hemifumarate following single intravenous administration of aliskiren hemifumarate at 1 mg.Kg-1 level in marmoset. Format: ADME, organism-based, Callithrix jacchus. The conditions noted are these: plasma.
Data set [21] can be described thus: AUC(0-24h) of aliskiren hemifumarate following 2 week oral dosing of aliskiren hemifumarate at 50 mg.Kg-1 level studied on day 14 in female Callithrix jacchus. It counts as ADME, organism-based. The conditions noted are these: marmoset, plasma.
The nature of data set [22]: AUCspec of aliskiren hemifumarate following 2 week oral dosing of aliskiren hemifumarate at 10 mg.Kg-1 level studied on day 14 in female Callithrix jacchus. It counts as ADME, organism-based, Plasma. To be noted: marmoset, in vivo, 336 h.
Data set [23] can be described thus: Effect of 4 week oral dietary dosing of aliskiren hemifumarate at 2000 mg.Kg-1 level on ovarian follicular atresia in female mouse. It counts as toxicity, organism-based, CB6F1-TGrasH2, Ovarian follicle. The conditions noted are these: in vivo, 672 h.
A short description of data set [24]: Cmax/dose of aliskiren hemifumarate following 4 week oral dietary dosing of aliskiren hemifumarate at 1500 mg.Kg-1 level in male mouse. Format: ADME, organism-based, CB6F1-TGrasH2. The conditions noted are these: in vivo, 672 h.
Data set [25] concerns the target T2, hERG (KCNH2) (Homo sapiens, UniProt Q12809). As to the kind of experiment: Effects of 100 uM aliskiren hemifumarate on current through cloned hERG channel expressed in human embryonic kidney cell. It counts as cell-based. To be noted: HEK293 cells that express cloned hERG channel, read-out: Inhibitory activity. Set-up: conc 100 uM, dose level Intermediate.
The nature of data set [26]: Cmaxspec of aliskiren hemifumarate following 2 week oral dosing of aliskiren hemifumarate at 10 mg.Kg-1 level studied on […] in male Callithrix jacchus. Format: ADME, organism-based, Plasma. To be noted: marmoset, in vivo, 336 h.
Data set [27] can be described thus: AUC (0-96 or 0-168h) of unlabeled aliskiren hemifumarate following single oral administration of aliskiren hemifumarate at 3 mg.Kg-1 level in marmoset. It counts as ADME, organism-based, Callithrix jacchus. To be noted: plasma.
Data set [28] has as its target T2, hERG (KCNH2). Briefly: Effects of 1000 uM aliskiren hemifumarate on current through cloned hERG channel expressed in human embryonic kidney cell. Format: cell-based. More on the design: conc 1000 uM, dose level High. The conditions noted are these: HEK293 cells that express cloned hERG channel, read-out: Inhibitory activity.

SMILES strings stand for the structures.

T2 sequence (Q12809 whole entry): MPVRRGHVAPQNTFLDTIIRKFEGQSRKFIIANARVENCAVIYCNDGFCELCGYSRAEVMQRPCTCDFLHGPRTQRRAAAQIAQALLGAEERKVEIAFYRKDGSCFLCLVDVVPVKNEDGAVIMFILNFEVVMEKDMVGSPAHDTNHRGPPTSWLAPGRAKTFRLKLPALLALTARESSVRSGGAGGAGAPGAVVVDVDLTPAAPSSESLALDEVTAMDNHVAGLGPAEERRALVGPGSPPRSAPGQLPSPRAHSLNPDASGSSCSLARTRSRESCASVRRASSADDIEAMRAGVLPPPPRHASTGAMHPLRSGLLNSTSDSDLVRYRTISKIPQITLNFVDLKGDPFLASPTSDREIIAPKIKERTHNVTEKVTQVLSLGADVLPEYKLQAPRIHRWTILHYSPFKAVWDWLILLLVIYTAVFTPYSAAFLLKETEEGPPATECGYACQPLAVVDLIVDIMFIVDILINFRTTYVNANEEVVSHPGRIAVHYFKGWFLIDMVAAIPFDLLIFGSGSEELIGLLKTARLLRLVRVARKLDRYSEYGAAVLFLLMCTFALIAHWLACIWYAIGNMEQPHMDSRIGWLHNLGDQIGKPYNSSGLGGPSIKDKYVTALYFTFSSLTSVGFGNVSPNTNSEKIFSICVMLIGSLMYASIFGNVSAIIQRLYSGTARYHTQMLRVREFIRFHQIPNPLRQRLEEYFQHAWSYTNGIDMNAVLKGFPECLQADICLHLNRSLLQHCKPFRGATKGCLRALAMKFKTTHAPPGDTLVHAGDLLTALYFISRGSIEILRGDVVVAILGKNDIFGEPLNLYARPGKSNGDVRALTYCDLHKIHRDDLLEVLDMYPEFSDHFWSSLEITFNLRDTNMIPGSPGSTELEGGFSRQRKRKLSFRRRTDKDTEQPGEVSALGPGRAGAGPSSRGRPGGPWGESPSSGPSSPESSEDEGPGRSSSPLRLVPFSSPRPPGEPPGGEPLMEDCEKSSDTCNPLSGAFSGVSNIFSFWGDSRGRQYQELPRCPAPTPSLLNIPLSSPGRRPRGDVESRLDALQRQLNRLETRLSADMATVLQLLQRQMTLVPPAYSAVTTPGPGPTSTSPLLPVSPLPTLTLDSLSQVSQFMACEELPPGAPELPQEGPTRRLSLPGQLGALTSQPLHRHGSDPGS
Chain of CYP2C19 (P33261 whole entry): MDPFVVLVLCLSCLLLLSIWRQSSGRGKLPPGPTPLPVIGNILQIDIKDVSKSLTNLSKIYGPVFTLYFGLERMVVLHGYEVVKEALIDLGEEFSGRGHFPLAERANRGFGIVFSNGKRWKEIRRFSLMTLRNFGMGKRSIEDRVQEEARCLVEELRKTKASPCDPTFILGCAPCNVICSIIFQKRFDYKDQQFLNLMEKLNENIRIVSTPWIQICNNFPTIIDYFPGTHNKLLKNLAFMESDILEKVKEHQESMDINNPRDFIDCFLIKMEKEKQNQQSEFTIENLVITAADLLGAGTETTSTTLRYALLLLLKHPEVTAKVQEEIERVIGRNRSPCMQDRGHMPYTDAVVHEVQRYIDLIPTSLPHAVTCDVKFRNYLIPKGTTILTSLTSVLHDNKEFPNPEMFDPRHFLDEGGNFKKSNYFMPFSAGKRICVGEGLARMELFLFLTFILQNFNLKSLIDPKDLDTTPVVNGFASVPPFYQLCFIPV
Chain of Cytochrome P450 3A4 (P08684 whole entry): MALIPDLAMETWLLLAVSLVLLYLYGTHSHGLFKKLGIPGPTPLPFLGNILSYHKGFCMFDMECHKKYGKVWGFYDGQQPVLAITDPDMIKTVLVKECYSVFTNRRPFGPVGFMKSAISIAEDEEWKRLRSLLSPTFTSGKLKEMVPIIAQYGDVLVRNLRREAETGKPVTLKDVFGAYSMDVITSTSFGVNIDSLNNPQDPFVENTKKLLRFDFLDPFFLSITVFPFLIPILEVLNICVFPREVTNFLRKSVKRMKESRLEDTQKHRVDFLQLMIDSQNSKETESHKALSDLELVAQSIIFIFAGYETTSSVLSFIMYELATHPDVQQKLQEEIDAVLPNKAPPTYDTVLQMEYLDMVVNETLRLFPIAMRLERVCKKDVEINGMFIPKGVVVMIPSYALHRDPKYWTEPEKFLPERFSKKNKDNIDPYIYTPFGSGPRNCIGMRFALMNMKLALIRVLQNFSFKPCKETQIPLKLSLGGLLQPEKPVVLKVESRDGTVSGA
Chain of CYP2C9 (P11712 whole entry): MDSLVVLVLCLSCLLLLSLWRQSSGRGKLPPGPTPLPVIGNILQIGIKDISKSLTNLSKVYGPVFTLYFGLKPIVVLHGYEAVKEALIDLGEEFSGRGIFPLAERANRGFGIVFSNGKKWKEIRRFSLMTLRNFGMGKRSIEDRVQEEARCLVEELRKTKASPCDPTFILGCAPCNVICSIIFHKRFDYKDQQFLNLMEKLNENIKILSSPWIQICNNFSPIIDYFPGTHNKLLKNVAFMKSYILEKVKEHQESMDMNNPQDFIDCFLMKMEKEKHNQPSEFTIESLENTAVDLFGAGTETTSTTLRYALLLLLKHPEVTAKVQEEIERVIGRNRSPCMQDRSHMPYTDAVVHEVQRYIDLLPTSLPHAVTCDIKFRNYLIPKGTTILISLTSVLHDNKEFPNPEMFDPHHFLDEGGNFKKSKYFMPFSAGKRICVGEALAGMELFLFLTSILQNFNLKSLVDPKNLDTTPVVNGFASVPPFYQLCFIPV

What is called AUC is concentration integrated over time. Low readings indicate low exposure, high ones high exposure. As for `COCCCOc1cc(C[C@@H](C[C@H](N)[C@@H](O)C[C@H](C(=O)NCC(C)(C)C(N)=O)C(C)C)C(C)C)ccc1OC`, the inhibition at 200 µM against CYP1A2 [1] was -12.4%; on CYP2C19 it was 3%; against CYP2C9 it was 32.1%; at CYP1A2 [5], 6%. For the same molecule, the Compound recovery in data set [2] is 36%; in data set [3] it was 80%. Moreover, in data set [4], the AUC was 0.868 µg·h/mL.
By Cmax is commonly meant the highest concentration seen after dosing. Broadly, the Tmax is the time at which the peak concentration occurs. In the case of `COCCCOc1cc(C[C@@H](C[C@H](N)[C@@H](O)C[C@H](C(=O)NCC([14CH3])([14CH3])C(N)=O)C(C)C)C(C)C)ccc1OC.O=C(O)/C=C/C(=O)O`, the CL amounted to 1013.1 µL·min/nmol on Cytochrome P450 3A4 and 1.4 µL·min/nmol at Cytochrome P450 2E1. In addition, the Radiolabel recovery in data set [6] is on record as 4.04%; in data set [8], 2.96%; in [13], 0.3%; in data set [14], “OUTCOME = Observed, VALUE = residues of radioactivity remained in the carcass at 7 days after dosing”; in data set [16], 0.61%; in data set [17], 94.44%. The molecule further registered a Compound recovery in data set [7] of 56%. Also, the Cmax normalised is given as 0.0042 (umol/L)/(mg/kg) in [9] and 2.12 (umol/L)/(mg/kg) in [9] (iv, 10 mg/kg). For the same molecule, the Cmax in data set [10] stood at 0.359 µM; in [11] it was 14.6 µM. Moreover, the Vmax in data set [12] amounted to 1807.6 pmol·min/mg. Also, the AUC in data set [15] is 18.3 µM·h. The Tmax in data set [18] turned out to be 0.25 h; in data set [18] (iv, 10 mg/kg), 0.083 h.
The half-life is the time needed for the level to fall by half in the phase considered. With `COCCCOc1cc(C[C@@H](C[C@H](N)[C@@H](O)C[C@H](C(=O)NCC(C)(C)C(N)=O)C(C)C)C(C)C)ccc1OC.COCCCOc1cc(C[C@@H](C[C@H](N)[C@@H](O)C[C@H](C(=O)NCC(C)(C)C(N)=O)C(C)C)C(C)C)ccc1OC.O=C(O)/C=C/C(=O)O` [ALISKIREN FUMARATE], in data set [19], the Cmax worked out at 363 ng/mL. Further, the half-life in data set [20] was 36 h. The molecule further had an AUC at 24 h in data set [21] of 109 µg·h/mL. Also, the AUC normalised in [22] is given as 2.9 ((ug.h.ml-1)/(mg/kg). Also, the “Change in ovarian follicular atresia” value in [23] was “OUTCOME = Increased. No animals died during the study”. Further, the Cmax normalised is given as 0.242 (ng/mL)/(mg/kg/day) in data set [24] and 0.577 (ug/ml)/(mg/kg) in data set [26]. Further, the inhibition at 100 µM at hERG (KCNH2) [25] stood at 6%. In data set [27], this molecule displayed an AUC at 168 h of 4.55 µM·h. In addition, the inhibition at 1000 µM at hERG (KCNH2) [28] was 32%.
